Data on one molecule can be found in ChEMBL document CHEMBL5252536, “Discovery of VU0467485/AZ13713945: An M4 PAM Evaluated as a Preclinical Candidate for the Treatment of Schizophrenia” (ACS Med Chem Lett, 2017).

In series [1] the target is T1, Muscarinic acetylcholine receptor M4 (Homo sapiens) (UniProt P08173).
T1 sequence (whole entry): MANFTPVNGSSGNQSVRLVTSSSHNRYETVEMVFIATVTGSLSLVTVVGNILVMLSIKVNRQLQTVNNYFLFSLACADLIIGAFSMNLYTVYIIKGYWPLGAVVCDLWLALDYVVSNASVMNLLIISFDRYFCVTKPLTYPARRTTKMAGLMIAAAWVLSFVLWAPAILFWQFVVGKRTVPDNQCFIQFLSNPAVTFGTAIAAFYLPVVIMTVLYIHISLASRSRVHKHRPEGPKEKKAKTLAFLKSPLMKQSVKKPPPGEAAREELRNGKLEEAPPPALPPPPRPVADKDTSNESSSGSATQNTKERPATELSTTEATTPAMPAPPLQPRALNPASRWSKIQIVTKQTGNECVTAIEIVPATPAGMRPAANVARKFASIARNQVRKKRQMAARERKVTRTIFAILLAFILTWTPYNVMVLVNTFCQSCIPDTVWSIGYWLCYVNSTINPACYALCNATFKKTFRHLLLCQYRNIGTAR
Put plainly: Positive allosteric modulator activity at human M4 receptor expressed in CHO cells co-expressing Gqi5 in absence of EC20 concentration of acetylcholine by calcium mobilization assay. The series is classed as cell-based. For orientation: Calcium assays in cells follow changes in intracellular calcium, usually with a dye or a luminescent sensor.

In series [2] the test system is CHO. In words: Positive allosteric modulator activity at cynomolgus monkey M4 receptor expressed in CHO cells co-expressing Gqi5 assessed as maximal response to ACh by calcium mobilization assay relative to contol. It counts as cell-based. The following applies: Macaca fascicularis, filed as positive allosteric modulator.
Series [3] concerns the target Cytochrome P450 2D6 (Homo sapiens, UniProt P10635). In words: Inhibition of CYP2D6 in human liver microsomes using dextromethorphan as substrate incubated for 15 mins in presence of NADPH by LC/MS/MS analysis. It counts as ADME, Microsome. A general note: Liver microsomes are vesicles of endoplasmic reticulum, rich in cytochrome P450 enzymes.
For series [4], the target named is Cytochrome P450 3A4 (Homo sapiens, UniProt P08684). In words: Activation of CYP34A in human hepatocyte using midazolam as substrate preincubated for 5 days followed by substrate addition and measured after 1 hr by LC-MS/MS analysis. The series is classed as ADME, cell-based.
Series [5] concerns the target T2, Cytochrome P450 2B6 (Homo sapiens, UniProt P20813).
T2 sequence (P20813 whole entry): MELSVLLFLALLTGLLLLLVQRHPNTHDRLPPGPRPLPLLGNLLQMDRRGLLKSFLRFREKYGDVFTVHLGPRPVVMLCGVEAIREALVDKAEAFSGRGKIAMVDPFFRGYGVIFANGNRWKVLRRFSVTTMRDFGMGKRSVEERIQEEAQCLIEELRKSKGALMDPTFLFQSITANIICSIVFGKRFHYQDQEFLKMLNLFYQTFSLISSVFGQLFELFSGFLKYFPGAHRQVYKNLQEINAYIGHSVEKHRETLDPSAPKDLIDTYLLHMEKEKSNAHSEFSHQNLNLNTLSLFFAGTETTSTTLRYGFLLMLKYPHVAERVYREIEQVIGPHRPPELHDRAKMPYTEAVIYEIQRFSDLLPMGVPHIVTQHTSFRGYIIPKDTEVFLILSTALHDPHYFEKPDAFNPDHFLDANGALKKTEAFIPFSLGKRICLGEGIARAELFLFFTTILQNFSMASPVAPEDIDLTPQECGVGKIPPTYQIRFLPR
In words: Activation of CYP2B6 in human hepatocyte using bupropion as substrate preincubated for 5 days followed by substrate addition and measured after 1 hr by LC-MS/MS analysis. The series is classed as ADME, cell-based.

The target of series [6] is T3, CYP2B6 (Homo sapiens, UniProt P20813).
T3 sequence (P20813 whole entry): T2 sequence (P20813 whole entry)
Put plainly: Activation of CYP2B6 in human hepatocyte using bupropion as substrate preincubated for 5 days followed by substrate addition and measured after 1 hr by LC-MS/MS analysis relative to control. The series is classed as ADME, cell-based. The following applies: hepatocytes, probe bupropion, time 121 hrs.

Series [7] is described as follows: Plasma protein binding in cynomolgus monkey assessed as unbound fraction incubated for 4 hrs by LC/MS/MS analysis. It counts as ADME, cell-free, Macaca fascicularis.
Series [8] can be described thus: Fraction unbound in rat brain incubated for 6 hrs by LC/MS/MS analysis. The series is classed as ADME, tissue-based.
The nature of series [9]: Apparent permeability across apical to basolateral side in human Caco-2 cells. It counts as ADME, cell-based.
Series [10] in a line: Cmax in Sprague-Dawley rat at 3 mg/kg,po by LC-MS/MS analysis. The series is classed as ADME, organism-based. On the set-up: dose 3 mg/kg, route po. To be noted: in vivo.
A short description of series [11]: Oral bioavailability in Sprague-Dawley rat at 3 mg/kg by LC-MS/MS analysis. The series is classed as ADME, organism-based. To be noted: in vivo.
A short description of series [12]: Volume of distribution at steady state in Beagle dog at 3 mg/kg,po or 1 mg/kg,iv by LC-MS/MS analysis. It counts as ADME, organism-based, Canis lupus familiaris. To be noted: in vivo.
Series [13] can be described thus: Elimination half life in Beagle dog at 3 mg/kg,po or 1 mg/kg,iv by LC-MS/MS analysis. It counts as ADME, organism-based, Canis lupus familiaris. The following applies: in vivo, read-out: beta t1/2 (converted).
Series [14] is described as follows: Oral bioavailability in Beagle dog at 3 mg/kg by LC-MS/MS analysis. It counts as ADME, organism-based, Canis lupus familiaris. The following applies: in vivo.
Series [15] can be described thus: Ratio of unbound drug concentration in Beagle dog brain to plasma at 3 mg/kg, po by LC-MS/MS analysis. The following applies: read-out: K(p,uu,brain). The series is classed as ADME, organism-based, Canis lupus familiaris.
Series [16] addresses T4, Cytochrome P450 1A2 (Homo sapiens, UniProt P05177).
T4 sequence (P05177 whole entry): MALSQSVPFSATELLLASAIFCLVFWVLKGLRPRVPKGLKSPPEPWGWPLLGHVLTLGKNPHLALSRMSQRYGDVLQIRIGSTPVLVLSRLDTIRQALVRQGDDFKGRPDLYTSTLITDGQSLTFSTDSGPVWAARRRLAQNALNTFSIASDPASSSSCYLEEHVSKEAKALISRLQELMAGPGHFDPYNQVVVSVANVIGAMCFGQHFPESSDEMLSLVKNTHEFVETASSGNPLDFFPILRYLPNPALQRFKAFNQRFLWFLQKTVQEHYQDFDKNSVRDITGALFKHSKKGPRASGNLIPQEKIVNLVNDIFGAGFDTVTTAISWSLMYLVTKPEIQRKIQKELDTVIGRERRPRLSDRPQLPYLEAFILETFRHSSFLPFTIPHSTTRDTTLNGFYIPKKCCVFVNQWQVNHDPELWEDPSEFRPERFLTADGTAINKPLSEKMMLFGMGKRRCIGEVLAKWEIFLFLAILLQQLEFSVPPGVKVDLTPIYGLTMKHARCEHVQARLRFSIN
Put plainly: […] of human CYP1A2 mediated drug metabolism incubated for 5 mins followed by NADPH addition measured after 1 hr by LC-UV/MS analysis relative to control. It counts as ADME. The following applies: recombinant enzyme, 1.083 h, time 65 min.

Series [17] can be described thus: Toxicity in rat assessed as effect on autonomical parameters at 56.6 mg/kg, po measured after 6 hrs by Irwin test. It counts as organism-based. The following applies: in vivo.
The nature of series [18]: Terminal plasma concentration in rat model of amphetamine-induced hyperlocomotion activity at 1 to 10 mg/kg, po measured after 1.5 hrs. To be noted: dose 1-10 mg/kg. It counts as ADME, organism-based.
Series [19] has as its system Rattus norvegicus. Put plainly: Antipsychotic activity in MK-801-induced hyperlocomotion activity in rat assessed as minimum effective dose administered orally preincubated for 30 mins followed by MK-801 addition and measured after 60 mins by open field test. The series is classed as functional. To be noted: 1.5 h, route po, time 90 min, read-out: MED.
Series [20] is described as follows: Aqueous solubility of compound at pH 7.4. The series is classed as physicochemical. To be noted: buffer.
Series [21] in a line: Elimination half life in Cynomolgous monkey at 0.2 mg/kg,iv by LC-MS/MS analysis. The following applies: cynomolgus monkey, in vivo, read-out: beta t1/2 (converted).

≈ marks a conversion by molar mass, not a printed value. Calls of active or inactive are those of the source. The calls are words filed in the database; no cut-off is given here.

Cytochrome P450 2D6, sequence (P10635 whole entry): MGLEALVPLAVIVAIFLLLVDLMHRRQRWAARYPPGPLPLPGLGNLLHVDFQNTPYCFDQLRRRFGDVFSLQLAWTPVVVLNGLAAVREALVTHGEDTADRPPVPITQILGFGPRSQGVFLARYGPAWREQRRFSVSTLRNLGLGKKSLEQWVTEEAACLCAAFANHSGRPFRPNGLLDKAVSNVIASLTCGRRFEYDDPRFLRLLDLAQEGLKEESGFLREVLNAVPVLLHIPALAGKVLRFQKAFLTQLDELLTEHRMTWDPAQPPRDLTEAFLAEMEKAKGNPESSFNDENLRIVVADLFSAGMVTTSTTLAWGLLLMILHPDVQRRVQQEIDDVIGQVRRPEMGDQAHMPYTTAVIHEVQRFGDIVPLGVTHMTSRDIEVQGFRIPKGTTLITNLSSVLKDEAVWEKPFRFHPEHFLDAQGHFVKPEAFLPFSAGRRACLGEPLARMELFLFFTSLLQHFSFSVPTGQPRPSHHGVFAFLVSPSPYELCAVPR
Cytochrome P450 3A4, sequence (P08684 whole entry): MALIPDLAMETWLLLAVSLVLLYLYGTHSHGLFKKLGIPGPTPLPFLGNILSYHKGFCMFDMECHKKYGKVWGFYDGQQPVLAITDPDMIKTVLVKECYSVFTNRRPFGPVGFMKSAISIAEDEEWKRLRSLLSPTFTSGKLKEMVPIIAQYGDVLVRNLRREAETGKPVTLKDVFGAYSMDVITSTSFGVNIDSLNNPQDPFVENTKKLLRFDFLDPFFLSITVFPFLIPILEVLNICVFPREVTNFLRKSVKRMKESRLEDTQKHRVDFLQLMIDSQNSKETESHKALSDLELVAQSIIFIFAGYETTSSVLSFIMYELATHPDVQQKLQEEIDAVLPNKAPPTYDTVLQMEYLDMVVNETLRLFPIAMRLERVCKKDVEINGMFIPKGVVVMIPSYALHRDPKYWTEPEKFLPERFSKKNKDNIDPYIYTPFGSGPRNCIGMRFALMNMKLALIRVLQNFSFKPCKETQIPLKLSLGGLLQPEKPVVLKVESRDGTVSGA

For the molecule `COc1ccc(CNC(=O)c2sc3nnc(C)c(C)c3c2N)cc1F`, the outcome in series [1] was inactive. Also, the Activity is 74% in [2], 21.4% in [16] and “Non-Toxic” in series [17]. Moreover, in series [3], the IC50 is above 30 µM. In addition, the EC50 in series [4] and in series [5] was above 50 µM in each case. This molecule showed a maximum response (Emax) at 1 h in series [6] of at most 1%. Further, the fraction unbound at 4 h in [7] worked out at 0.091. Also, in series [8], the free fraction (fraction unbound) at 6 h came to 0.037. Besides, the Papp A→B in [9] came out at 31 ×10⁻⁶ cm/s. The molecule also returned a Cmax in series [10] of 1200 nM. In addition, the bioavailability in series [11] stood at 79%; in series [14], 9.5%. Further, the Vdss in series [12] stood at 1.5 L/kg. Further, the half-life is 78 min in [13] and 28.8 min in [21]. For the same molecule, in series [15], the Kp uu was determined as 0.84. For the same molecule, the concentration at 1.5 h in series [18] came out at 1800 nM. The minimal effective dose in [19] amounted to 30 mg/kg. Besides, the concentration in solution in series [20] (solubility) was 2.4 µM (≈ 0.865 µg/mL).

For orientation: IC50 means the concentration needed to halve the response being measured. For orientation: EC50 means the concentration giving half of the maximal effect. What is called Emax is the greatest response seen or fitted, relative to the assay's reference. By fraction unbound is commonly meant free concentration divided by total concentration. As usually defined, the Papp A→B is how fast a substance crosses the layer from the apical side. A word on the Cmax: it is the maximum level reached in the sampled fluid or tissue. Usually bioavailability stands for the share of a dose that reaches the circulation, judged against a reference dose that is usually intravenous. The term solubility denotes how much of the substance goes into solution per volume.
